Assay results published in patent US4116972A, “Anti-inflammatory 1-oxo-isoindoline derivatives and processes for their preparation” (Fuji Chemical Industry Company Limited, priority 1975, dated 1978).
Read-outs that look alike come from different tables or passages of the source.

Key:
[1] = system: male rats of the Wistar strain; assay: Analgesic effect, Pressure Method; type: in vivo, rat (male
Procedure: (§1) The rats were tested in groups of six. Only those animals having a normal pain threshold in both hind legs were selected for the tests. The compound to be tested was suspended in 0.3% carboxymethylcellulose aqueous solution and administered orally. […] The analgesic activity was tested by the Pressure Method [Brit. J. […] Int.

stomach [2] = assay: Effect on gastric ulcer, first method (single oral administration); type: in vivo, rat (male, Donryu strain); conditions: 18 hours
Procedure: (§2) Each compound to be tested was suspended in a 0.3% solution of carboxymethylcellulose in physiological saline and administered in an amount of 1 ml per 200 g body weight of the rat. Determination of the occurrence of gastric inflammation and ulceration was calculated by adding the sizes of ulcerated regions (mm^2) of each rat observed within a lattice (width 1 cm, divided into 10 equal parts) of a stereomicroscope. The determination was made on the stomach removed after sacrifice of the animal and then fixed for 10 minutes with 1% formalin.
In a first method, the compound to be tested was administered orally after 24 hours starvation and then, after a further 18 hours, the animal was sacrificed, under ether anaesthesia.

stomach [3] = assay: Effect on gastric ulcer, second method (repeated oral administration); type: in vivo, rat (male, Donryu strain)
Procedure: Male rats of the Donryu strain having a body weight of 150-200 g were starved for 24 hours and the effects of administration of Compound 1 and its aluminium salt (Compound 7) on the occurrence of gastric ulcers were determined, as were the effects of other known anti-inflammatory agents.
as §2
As a second method, first oral administration was effected after 24 hours starvation and a second oral administration was effected after a further 12 hours starvation. Each animal was then sacrificed, under ether anaesthesia, 6 hours after the second administration. This method was employed to observe the effect after repeated administration of the compounds of the invention.

[4] = system: carrageenin-induced oedema; assay: Carrageenin-oedema test in rats (anti-inflammatory activity); type: in vivo, rat (male, Wistar strain)
Procedure: Compound 1 was administered through a stomach tube, in suspension in a 0.3% by weight carboxymethylcellulose aqueous solution, in an amount of 6.25 mg/kg or 12.5 mg/kg to male rats of the Wistar strain having a body weight of 120-130 g. After 1 hour, inflammation was induced by injecting subcutaneously […] of a 1% carrageenin suspension into the plantar tissue of the right hind paw of each rat. Paw oedema was measured volumetrically,immediately before and also every hour for 5 hours after the carrageenin injection, and the response, measured as the oedema effect (E) was calculated by the following equation: […]
where Vo and VT represents the paw volumes O and T after the carrageenin injection, respectively.
The tests were also carried out on a control group of rats to which no anti-inflammatory agent had been administered. Each test was carried out on a group of six rats.
The inhibitory effect was measured by the inhibitory ratio (IR), calculated from the following equation:
IR = […] 100 (%)
where Ec represents the oedema ratio of the control rats and E represents the oedema ratio of the rats treated with Compound 1.
The inhibitory ratio was determined on administration of various amounts of Compound 1 and the results obtained 3 hours after carrageenin injection are shown in Table 1.

[5] = system: male rats of the Wistar strain; assay: Analgesic effect, Acetic Acid Raising Method; type: in vivo, rat (male; design: unit not given here
[6] = system: male rats of the Wistar strain; assay: Analgesic effect, Randall-Selitto Method; type: in vivo, rat (male
Procedure: as §1

Acute toxicity (oral) = type: in vivo; conditions: in vivo; for LD50 at 168 h: rat, po
Procedure: (§3) Compound 1 was administered in the amounts shown in Table 3 to male rats of the Wistar strain having a body weight of 110-130 g. The rats were tested in groups of eight and similar tests were applied to similar groups of female rats. The compound to be tested was suspended in a 0.3% aqueous solution of carboxymethylcellulose and was administered through a stomach tube. The lethal dose 50% (LD50) and credibility limit 95% (CL) were calculated from the lethal effect by the method of Litchield and Wilcoxon [J. Pharmac. Exp. Ther., 96, 99 (1949)]; the lethal effect was expressed as X/n, in which X is the number of animals which were dead one week after administration and n is the total number of animals used in the test.

[7] = system: rats of the Wistar strain; assay: Acute toxicity (oral); type: in vivo; conditions: one week after administration
Procedure: as §3

[8] = system: male rats of the Wistar strain; assay: Analgesic effect, overall (Pressure, Acetic Acid Raising and Randall-Selitto methods); type: in vivo, rat (male; conditions: oral
Procedure: as §1

Solubility = type: physicochemical
[9] = 200 × 2 mg/kg P.O., Aspirin marked * (significant difference vs phenylbutazone at p = 0.01)
[10] = 50 mg/kg P.O., Compound 7 marked ** (significant difference vs phenylbutazone at p = 0.01)
[11] = 50 × 2 mg/kg P.O., vs phenylbutazone: Compound 1 * (p = 0.01), Compound 7 ** (p = 0.1), 2 mg/kg

Compound: Cc1c(N(C)C)c(=O)n(-c2ccccc2)n1C [Aminopyrine]
- Pressure method, Ratio (average) ([1]; 150 mg/kg orally): 2.02

Compound: CC(=O)Oc1ccccc1C(=O)O [Aspirin]
- Size of ulcerated region of stomach (stomach [2]; 200 mg/kg P.O.): 9.7 ± 1.36 mm^2
- Size of ulcerated region of stomach (stomach [3]; [9]): 27.2 ± 3.01 mm^2

Compound: CC(C(=O)O)c1ccc(N2CC3=C(CC=CC3)C2=O)cc1 (stereo not drawn) [Compound 1, α-[4-(1-oxo-4,7-dihydro-2-isoindolinyl)phenyl]propionic acid]
- Inhibitory ratio ([4]; 5 mg/kg oral, 3 hours after carrageenin injection): 33.2%
- Inhibitory ratio ([4]; 10 mg/kg oral, 3 hours after carrageenin injection): 57.1%
- Inhibitory ratio ([4]; 20 mg/kg oral, 3 hours after carrageenin injection): 64.7%
- Inhibitory ratio ([4]; 40 mg/kg oral, 3 hours after carrageenin injection): 69.0%
- dose dependence of inhibitory effect (in words) ([4]; 5-40 mg/kg, 3 hours after carrageenin injection): increased in rough proportion to the amount of Compound 1 administered
- inhibitory effect over the first 5 hours (in words) ([4]; 6.25 or 12.5 mg/kg oral): strong inhibitory effect appeared over the first 5 hours
- onset of inhibitory effect (in words) ([4]; 6.25 or 12.5 mg/kg oral): clearly appeared at the end of the first hour after carrageenin injection
- ED50 ([4]; 3 h, oral, rat carrageenin oedema, range printed 4.0-30.9 mg/kg, read-out: ED50 (effective dose 50%)): 11.1 mg/kg
- inhibitory effect on carrageenin-induced oedema (in words) ([4]; rat hind paw oedema): particularly strong inhibitory effect
- Pressure method, Ratio (average) ([1]; 150 mg/kg orally): 1.36
- Acetic Acid Raising method, a (graded response) ([5]; 100 mg/kg orally): 21.0
- Acetic Acid Raising method, b (all or none response) ([5]; 100 mg/kg orally): 7
- Randall-Selitto method, Analgesic index, Inflamed foot ([6]; 10 mg/kg orally): 1.21
- Randall-Selitto method, Analgesic index, Normal foot ([6]; 10 mg/kg orally): 1.04
- selectivity ratio (Acute toxicity (oral); oral LD50 male rat / ED50 carrageenin oedema rat, read-out: therapeutic index (LD50/ED50)): 29.6
- LD50 at 168 h (Acute toxicity (oral); female rats, 95% CL (250-476), read-out: LD50, Female): 345 mg/kg
- LD50 at 168 h (Acute toxicity (oral); male rats, 95% CL (238-453), read-out: LD50, Male): 328 mg/kg
- Lethal effect, Female (dead/total) ([7]; 180 mg/kg oral): 1/8
- Lethal effect, Male (dead/total) ([7]; 180 mg/kg oral): 0/8
- Lethal effect, Female (dead/total) ([7]; 234 mg/kg oral): 2/8
- Lethal effect, Male (dead/total) ([7]; 234 mg/kg oral): 2/8
- Lethal effect, Female (dead/total) ([7]; 304 mg/kg oral): 3/8
- Lethal effect, Male (dead/total) ([7]; 304 mg/kg oral): 4/8
- Lethal effect, Female (dead/total) ([7]; 395 mg/kg oral): 5/8
- Lethal effect, Male (dead/total) ([7]; 395 mg/kg oral): 5/8
- Lethal effect, Female (dead/total) ([7]; 514 mg/kg oral): 6/8
- Lethal effect, Male (dead/total) ([7]; 514 mg/kg oral): 6/8
- Lethal effect, Female (dead/total) ([7]; 668 mg/kg oral): 8/8
- Lethal effect, Male (dead/total) ([7]; 668 mg/kg oral): 8/8
- Size of ulcerated region of stomach (stomach [2]; [10]): 4.1 ± 0.46 mm^2
- Size of ulcerated region of stomach (stomach [3]; [11]): 11.3 ± 2.00 mm^2
- analgesic effect (in words) [8]: weak

Compound: CC(C(=O)O)c1ccc(N2CC3=C(CC=CC3)C2=O)cc1 (stereo not drawn) [Compound 7, Aluminium α-[4-(1-oxo-4,7-dihydro-2-isoindolinyl)phenyl]propionate]
- Size of ulcerated region of stomach (stomach [2]; [10]): 2.4 ± 0.49 mm^2
- Size of ulcerated region of stomach (stomach [3]; [11]): 10.3 ± 1.00 mm^2
- solubility in dimethyl sulphoxide (Solubility; dimethyl sulphoxide): slightly soluble
- solubility in most organic solvents (Solubility; most organic solvents): sparingly soluble

Compound: CC(C)Cc1ccc(C(C)C(=O)O)cc1 (centres unmarked) [Ibuprofen]
- Acetic Acid Raising method, a (graded response) ([5]; 200 mg/kg orally): 21.9
- Acetic Acid Raising method, b (all or none response) ([5]; 200 mg/kg orally): 20
- Randall-Selitto method, Analgesic index, Inflamed foot ([6]; 100 mg/kg orally): 1.20
- Randall-Selitto method, Analgesic index, Normal foot ([6]; 100 mg/kg orally): 1.05

Compound: COc1ccc2c(c1)c(CC(=O)O)c(C)n2C(=O)c1ccc(Cl)cc1 [Indomethacin]
- Size of ulcerated region of stomach (stomach [2]; 20 mg/kg P.O.): 8.0 ± 1.22 mm^2
- Size of ulcerated region of stomach (stomach [3]; 20 × 2 mg/kg P.O.): 15.3 ± 1.20 mm^2

Compound: CC(C(=O)O)c1cccc(C(=O)c2ccccc2)c1 (centres unmarked) [Ketoprofen]
- Pressure method, Ratio (average) ([1]; 100 mg/kg orally): 1.40
- Acetic Acid Raising method, a (graded response) ([5]; 100 mg/kg orally): 53.8
- Acetic Acid Raising method, b (all or none response) ([5]; 100 mg/kg orally): 60
- Randall-Selitto method, Analgesic index, Inflamed foot ([6]; 10 mg/kg orally): 1.20
- Randall-Selitto method, Analgesic index, Normal foot ([6]; 10 mg/kg orally): 1.03

Compound: Cc1cccc(Nc2ccccc2C(=O)O)c1C [Mefenamic acid]
- Acetic Acid Raising method, a (graded response) ([5]; 150 mg/kg orally): 45.4
- Acetic Acid Raising method, b (all or none response) ([5]; 150 mg/kg orally): 60

Compound: CCCCC1C(=O)N(c2ccccc2)N(c2ccccc2)C1=O [Phenylbutazone]
- Acetic Acid Raising method, a (graded response) ([5]; 200 mg/kg orally): 25.8
- Acetic Acid Raising method, b (all or none response) ([5]; 200 mg/kg orally): 20
- Size of ulcerated region of stomach (stomach [2]; 200 mg/kg P.O.): 6.6 ± 1.31 mm^2
- Size of ulcerated region of stomach (stomach [3]; [9]): 17.2 ± 1.93 mm^2
